Measurements published in patent publication US11040031B2, “Pyrazole derivatives as MALT1 inhibitors” (Janssen Pharmaceutica NV, priority 2018, dated 2021).
pIC50: −log10 of the molar value. Read-outs that look alike come from different tables or passages of the source.

Columns and labels:
[1] = system: Secretion of IL10 by OCI-LY3 ABC-DLBCL cells; experiment: Human IL10 Mesoscale assay (OCI-LY3); type: cell-based; conditions: OCI-LY3 cells, 24 h incubation, supernatant, MSD V-Plex, read-out: Human IL10 Mesoscale assay (OCI-LY3)
Outline: (§1)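 TMD8 or OCI-LY3 ABC-DLBCL cells incubated with compound 24 h at 37° C without beta-mercaptoethanol. Secreted IL6 and IL10 in supernatant quantified by MSD electrochemiluminescence immunoassay; DMSO wells define maximum signal.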

[2] = system: Secretion of IL6 by OCI-LY3 ABC-DLBCL cells; experiment: Human IL6 Mesoscale assay (OCI-LY3); type: cell-based; conditions: OCI-LY3 cells, 24 h incubation, supernatant, MSD V-Plex, read-out: Human IL6 Mesoscale assay (OCI-LY3)
Outline: as §1

[3] = system: Secretion of IL6 by TMD8 ABC-DLBCL cells; experiment: Human IL6 Mesoscale assay (TMD-8); type: cell-based; conditions: read-out: Human IL6 Mesoscale assay (TMD-8)
Method: (§2) NFKB signaling regulates the secretion of multiple cytokines, including IL6 and IL10. Secretion of the cytokines IL6 and IL10 by TMD8 or OCI-LY3 ABC-DLBCL cells was measured using a mesoscale assay.
(§3) Cell passage number should not exceed 30. Cells should be kept between 0.5-2.5 million cells per mL during culturing and cells should be supplemented every 2-3 days with fresh 50 µM beta-mercaptoenthanol. No beta-mercaptoethanol was used during the mesoscale assay.
(§4) DMSO control wells were used to determine the maximum signal (High Control (HC)). […] Compounds and cells were incubated for 24 h at 37° C. and 5% CO2 (assay volume is 150 μL). After 24 h of incubation 50 μL of the supernatant was transferred to a MSD plate (V-Plex Proinflammation Panel 1 (human) kit, Mesoscale (MSD)) and incubated for 2 h with vigorous shaking (600 rpm) at room temperature. Following incubation, plates were washed 3× with PBS+0.05% Tween-20 and 25 μL detection antibody solution (IL6 & IL10 antibodies in diluent 3 (MSD)) was added per well followed by 2 h of incubation with vigorous shaking (600 rpm) at room temperature. After 3× washes with PBS+0.05% Tween-20, plates were incubated with 150 μL 2× Read Buffer T and read on SECTOR imager.

[4] = system: Secretion of IL10 by TMD8 ABC-DLBCL cells; experiment: Human IL10 Mesoscale assay (TMD-8); type: cell-based; conditions: read-out: Human IL10 Mesoscale assay (TMD-8)
Method: as §2, §3, §4

[5] = system: OCI-Ly3 ABC-DLBCL cell line; experiment: 4-day proliferation assay OCI-Ly3; type: cell-based; conditions: Homo sapiens, read-out: Anti-proliferation: OCI-LY-3 IC50
Outline: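 10,000 OCI-Ly3 cells per well cultured 4 days at 37° C., 5% CO2 without beta-mercaptoethanol, at densities giving linear growth. Viability read by CellTiterGLO luminescence after 10 min at room temperature.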

[6] = target: T1, full-length MALT1 protein (Strep-MALT1(1-824)-His) (Homo sapiens, UniProt Q9UDY8); experiment: biochemical;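 also: fluorogenic LRSR-AMC substrate cleavage by MALT1, 50 min compound preincubation then 4 h reaction at RT, 11-point dilution from 30 µM, scaled between enzyme-free and untreated enzyme controls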
T1 sequence (Q9UDY8 1-824): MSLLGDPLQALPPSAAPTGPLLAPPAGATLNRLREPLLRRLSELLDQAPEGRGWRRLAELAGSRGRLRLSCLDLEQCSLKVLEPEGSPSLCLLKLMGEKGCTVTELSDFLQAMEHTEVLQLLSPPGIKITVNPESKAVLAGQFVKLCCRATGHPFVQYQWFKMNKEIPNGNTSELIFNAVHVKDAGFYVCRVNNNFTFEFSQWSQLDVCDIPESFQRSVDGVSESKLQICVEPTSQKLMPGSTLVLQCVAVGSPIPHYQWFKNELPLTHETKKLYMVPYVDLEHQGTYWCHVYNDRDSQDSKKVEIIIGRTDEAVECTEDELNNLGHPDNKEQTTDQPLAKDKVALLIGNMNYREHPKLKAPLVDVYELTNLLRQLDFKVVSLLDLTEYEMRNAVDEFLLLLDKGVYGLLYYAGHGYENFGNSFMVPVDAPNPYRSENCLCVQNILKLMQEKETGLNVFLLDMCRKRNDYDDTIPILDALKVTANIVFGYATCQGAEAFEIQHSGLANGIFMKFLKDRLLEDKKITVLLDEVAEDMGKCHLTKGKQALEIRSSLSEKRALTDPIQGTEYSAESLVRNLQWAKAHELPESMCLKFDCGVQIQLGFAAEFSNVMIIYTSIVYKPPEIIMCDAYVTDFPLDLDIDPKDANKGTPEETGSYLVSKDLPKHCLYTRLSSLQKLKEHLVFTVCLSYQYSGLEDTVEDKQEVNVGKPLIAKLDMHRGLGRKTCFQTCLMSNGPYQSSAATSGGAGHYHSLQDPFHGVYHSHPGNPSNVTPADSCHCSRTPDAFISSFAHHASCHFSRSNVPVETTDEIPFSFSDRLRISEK

[7] = TMD8 cells, 24 h incubation, supernatant, MSD V-Plex
[8] = 96 h, 10,000 OCI-Ly3 cells per well, 4 days, CellTiterGLO

Compound | pIC50 [1] | pIC50 [2] | pIC50 [3, 7] | pIC50 [4, 7] | pIC50 [5, 8] | pIC50 [6] | pIC50 ([3]; TMD8, 24 h) | pIC50 ([4]; TMD8, 24 h) | pIC50 ([5]; OCI-Ly3, 96 h)
N#Cc1cc(NC(=O)c2cnn(-c3ccnc4c3OCO4)c2C(F)(F)F)cnc1-n1nccn1 [Cpd 53, 1-([1,3]dioxolo[4,5-b]pyridin-7-yl)-N-(5-cyano-6-(2H-1,2,3-triazol-2-yl)pyridin-3-yl)-5-(trifluoromethyl)-1H-pyrazole-4-carboxamide] | 6.84 | 6.78 | 7.05 | 6.68 | 5.73 | 7.13 | – | – | –
Cc1cc(F)ccc1-n1ncc(C(=O)Nc2cnc(-n3nccn3)c(Cl)c2)c1C(F)(F)F [Cpd 1, N-(5-Chloro-6-(2H-1,2,3-triazol-2-yl)pyridin-3-yl)-1-(4-fluoro-2-methylphenyl)-5-(trifluoromethyl)-1H-pyrazole-4-carboxamide] | 7.24 | 7.08 | 7.10 | 7.07 | 5.87 | 6.93 | – | – | –
N#Cc1cc(NC(=O)c2cnn(-c3nccc(Cl)c3Cl)c2C(F)(F)F)cnc1-n1nccn1 [Cpd 36, N-(5-Cyano-6-(2H-1,2,3-triazol-2-yl)pyridin-3-yl)-1-(3,4-dichloropyridin-2-yl)-5-(trifluoromethyl)-1H-pyrazole-4-carboxamide] | – | – | – | – | – | 6.67 | 5.81 | 5.94 | 5.37
CN1CCOc2c1cccc2-n1ncc(C(=O)Nc2cnc(-n3nccn3)c(C#N)c2)c1C(F)(F)F [Cpd 132, N-(5-cyano-6-(2H-1,2,3-triazol-2-yl)pyridin-3-yl)-1-(4-methyl-3,4-dihydro-2H-benzo[b][1,4]oxazin-8-yl)-5-(trifluoromethyl)-1H-pyrazole-4-carboxamide] | – | – | 6.26 | 5.87 | 5.96 | 6.72 | – | – | –
Cc1cc(-n2ncc(C(=O)Nc3cnc(-n4nccn4)c(Cl)c3)c2C(F)(F)F)c(Cl)cn1 [Cpd 68, 1-(5-chloro-2-methylpyridin-4-yl)-N-(5-chloro-6-(2H-1,2,3-triazol-2-yl)pyridin-3-yl)-5-(trifluoromethyl)-1H-pyrazole-4-carboxamide] | – | – | – | – | – | 6.37 | 5.26 | 5.15 | 5.15
N#Cc1cc(NC(=O)c2cnn(-c3cccc4c3OCCO4)c2C(F)(F)F)cnc1-n1nccn1 [Cpd 49, N-(5-cyano-6-(2H-1,2,3-triazol-2-yl)pyridin-3-yl)-1-(2,3-dihydrobenzo[b][1,4]dioxin-5-yl)-5-(trifluoromethyl)-1H-pyrazole-4-carboxamide] | – | – | 6.84 | 6.82 | 6.36 | 6.83 | – | – | –
COc1ncccc1-n1ncc(C(=O)Nc2cnc(-n3nccn3)c(Cl)c2)c1C(F)(F)F [Cpd 14, N-(5-Chloro-6-(2H-1,2,3-triazol-2-yl)pyridin-3-yl)-1-(2-methoxypyridin-3-yl)-5-(trifluoromethyl)-1H-pyrazole-4-carboxamide] | – | – | 6.50 | 6.55 | 5.67 | 6.83 | – | – | –
N#Cc1cc(NC(=O)c2cnn(-c3ncc(F)cc3Cl)c2C(F)(F)F)cnc1-n1nccn1 [Cpd 106, 1-(3-chloro-5-fluoropyridin-2-yl)-N-(5-cyano-6-(2H-1,2,3-triazol-2-yl)pyridin-3-yl)-5-(trifluoromethyl)-1H-pyrazole-4-carboxamide] | – | – | 5.64 | 5.69 | 5.54 | 6.60 | – | – | –
O=C(Nc1cnc(-n2nccn2)c(Cl)c1)c1cnn(-c2ccccc2)c1C(F)(F)F [Cpd 5, N-(5-Chloro-6-(2H-1,2,3-triazol-2-yl)pyridin-3-yl)-1-phenyl-5-(trifluoromethyl)-1H-pyrazole-4-carboxamide] | – | – | 6.58 | 6.13 | 6.42 | 6.53 | – | – | –
O=C(Nc1cnc(-n2nccn2)c(Cl)c1)c1cnn(-c2ccc(F)cn2)c1C(F)(F)F [Cpd 7, N-(5-Chloro-6-(2H-1,2,3-triazol-2-yl)pyridin-3-yl)-1-(5-fluoropyridin-2-yl)-5-(trifluoromethyl)-1H-pyrazole-4-carboxamide] | – | – | – | – | – | 6.04 | 6.39 | 6.38 | 5.81
N#Cc1cccc(-n2ncc(C(=O)Nc3cnc(-n4nccn4)c(Cl)c3)c2C(F)(F)F)c1 [Cpd 21, N-(5-chloro-6-(2H-1,2,3-triazol-2-yl)pyridin-3-yl)-1-(3-cyanophenyl)-5-(trifluoromethyl)-1H-pyrazole-4-carboxamide] | – | – | 6.04 | 5.90 | 6.13 | 5.95 | – | – | –
